The values below come from publication PMC3795654, “Combinatorial Optimization of Cystine-Knot Peptides towards High-Affinity Inhibitors of Human Matriptase-1” (PLoS ONE, 2013).

Assay [1] addresses T1, Human matriptase-1 (Homo sapiens, UniProt Q9Y5Y6).
T1 construct: made in house
T1 sequence (Q9Y5Y6 615-855 limits assumed): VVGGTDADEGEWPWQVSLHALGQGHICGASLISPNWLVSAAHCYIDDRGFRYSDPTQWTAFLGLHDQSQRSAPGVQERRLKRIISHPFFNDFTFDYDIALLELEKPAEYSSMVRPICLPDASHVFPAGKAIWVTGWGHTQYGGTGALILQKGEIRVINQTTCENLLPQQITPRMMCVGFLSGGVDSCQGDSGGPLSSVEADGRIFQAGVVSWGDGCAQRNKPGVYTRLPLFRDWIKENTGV
Kind of assay: Matriptase-1 inhibition assay (Ki / Ki app). The class given is biochemical. Particulars: substrate-independent Ki from Ki app (Morrison equation) and Km, 250 µM substrate, preincubation 30 min RT, read over 30 min, triplicate; for Ki: read-out: Ki (Matriptase-1).
Procedure: (§5) Human matriptase-1 was produced recombinantly, autocatalytically activated and purified as previously reported [35], [49], [51], [60].
(§6) Apparent inhibition constants (Ki ^app) were calculated by fitting the Morrison equation (1) for tight-binding inhibitors to the relative reaction velocity using non-linear regression (Marquardt-Levenberg algorithm, Sigma Plot 11) [63].

The test system of assay [2] is Human matriptase-1. Kind of assay: Matriptase-1 inhibition assay (Ki / Ki app). The assay is classed as biochemical. The settings on record: ratio of Ki values of Table 1.
Procedure: as §5, §6
The test system of assay [3] is uPA activation by matriptase-1 on the surface of PC-3 cells. The assay can be described thus: Cell inhibition assay: uPA activation by matriptase-1 on the surface of PC-3 cells. The assay is classed as cell-based, human. On the procedure:
Human prostate cancer cells (PC-3, Merck KGaA) were cultured in DMEM medium with 10% FCS at 37°C and 5% CO2, washed with cation-free PBS and harvested by scraping. 1×10^5 cells were incubated in presence of 250 µM Bz-β-Ala-Gly-Arg-pNA·AcOH (American Diagnostica), which is a specific […] of urokinase, and the inhibitor of interest in defined dilutions overnight. Product formation was monitored at 405 nm before and after incubation in a microplate reader. IC50 was calculated by non-linear regression using SigmaPlot 11.
Urokinase-type plasminogen activator (uPA) causes the degradation of the extracellular matrix and plays a critical role in tumor invasion and metastasis, [73]. It was shown that activation of receptor-bound pro-uPA is affected by matriptase-1, which results in a decreased ability of uPAexpressing tumor cells to invade an extracellular matrix layer upon inhibition of membrane-bound matriptase-1 [72].
For the indirect determination of the IC50 of SOTI Var. 1 and MCoTI Var. 4 on the surface of these cancer cells, the turnover of an uPA substrate was monitored. Pro-uPA is activated through non-inhibited matriptase-1 and substrate turnover was measured and compared to the previously reported small molecule inhibitor S1 of matriptase-1 (Figure 4). In this experimental setting, the MCoTI-based inhibitor Var. […] 4 in this assay.
Figure 4 Inhibition assay of uPA activation by matriptase-1 on the surface of PC-3 cells. Depicted is the logarithmic inhibitor concentration against the absorption at 405 TEXT PRINTED IN THE PICTURE: MCoTI Var.

Assay [4] concerns the target uPA (Homo sapiens, UniProt P00749). The assay can be described thus: biochemical. The protocol: (§1) Human matriptase-1 was produced recombinantly, autocatalytically activated and purified as previously reported, [49], [51], [60]. Bovine pancreatic trypsin, thrombin and uPA were purchased from Sigma-Aldrich and Hepsin from R&D Systems.
(§2) Measurements were carried out in triplicate using a Tecan Genios ELISA reader. The normalized residual proteolytic activity (v/v0) of proteases was determined using substrates Boc-QAR-pNA (250 µM, (pNA stands for para-nitro aniline), Boc-QAR-AMC (250 µM, AMC stands for amino-methyl coumarin) or Spectrozym tPA (250 µM, American Diagnostica, CH3SO2-D-CHT-Gly-Arg-pNA AcOH). Product formation was monitored after preincubation (30 min, RT) with inhibitor at different concentrations over 30 min by measuring the absorbance at 405 nm for pNA substrates or the fluorescence emission for AMC substrates (ex. 360 nm, em. 465 nm), respectively. Selectivity data were carried out in duplicates with final protease concentrations of uPA and thrombin of 5 nM. In case of hepsin 50 mM Tris/HCl pH 9.0 was used as assay buffer.
(§3) Apparent inhibition constants (Ki ^app) were calculated by fitting the Morrison equation (1) for tight-binding inhibitors to the relative reaction velocity using non-linear regression (Marquardt-Levenberg algorithm, Sigma Plot 11). [drawing 1] (1) [drawing 2] (2)
(§4) Substrate-independent inhibition constants Ki were calculated from Ki ^app and Km of the enzyme according to (2). The Michaelis-Menten constant Km for the substrates and proteases were determined previously, [64].

In assay [5] the target is Hepsin (Homo sapiens, UniProt P05981). Kind of assay: biochemical. The protocol:
as §1, §2, §3, §4

For assay [6], the target named is thrombin. The assay can be described thus: Selectivity assay, thrombin inhibition. The assay is classed as biochemical. Particulars: duplicates; 5 nM protease; no inhibition observed at 10 µM inhibitor concentration.
Procedure: as §6
Assay [7] has as its target T2, Bovine pancreatic trypsin (Bos taurus, UniProt P00760).
T2 construct: purchased Sigma-Aldrich
T2 sequence (P00760 24-246): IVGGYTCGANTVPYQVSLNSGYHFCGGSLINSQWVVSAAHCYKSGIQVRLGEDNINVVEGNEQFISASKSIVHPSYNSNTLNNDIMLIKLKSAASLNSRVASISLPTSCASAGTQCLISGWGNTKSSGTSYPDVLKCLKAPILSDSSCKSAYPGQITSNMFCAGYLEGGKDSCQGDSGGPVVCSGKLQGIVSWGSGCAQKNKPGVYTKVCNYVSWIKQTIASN
Kind of assay: Trypsin inhibition assay (substrate-independent Ki). The class given is biochemical. Particulars: substrate-independent Ki from Ki app (Morrison equation) and Km; 250 µM substrate; preincubation 30 min RT; read over 30 min; triplicate.
Procedure: as §6

As usually defined, the IC50 is the concentration at which inhibition is half-maximal.

Like-named read-outs stand apart in the source and are kept apart here. Where a SMILES comes first, the peptide text is derived from it. Bridges are numbered along the chain shown (N, C = ends). A value given as a limit tells only on which side of the number the result lay.

Hepsin, sequence (P05981 whole entry): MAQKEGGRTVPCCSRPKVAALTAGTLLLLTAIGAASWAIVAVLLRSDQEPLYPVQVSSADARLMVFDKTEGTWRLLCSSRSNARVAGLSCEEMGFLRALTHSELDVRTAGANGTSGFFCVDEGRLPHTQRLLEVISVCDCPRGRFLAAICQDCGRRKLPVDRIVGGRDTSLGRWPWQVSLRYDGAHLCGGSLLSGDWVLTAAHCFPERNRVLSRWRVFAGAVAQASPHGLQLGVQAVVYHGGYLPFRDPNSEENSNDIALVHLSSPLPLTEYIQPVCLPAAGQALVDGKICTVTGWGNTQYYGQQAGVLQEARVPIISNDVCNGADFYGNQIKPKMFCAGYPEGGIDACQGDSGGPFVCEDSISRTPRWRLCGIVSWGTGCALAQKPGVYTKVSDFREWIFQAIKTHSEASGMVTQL

Regarding `CC[C@H](C)[C@@H]1NC(=O)[C@@H]2CSSC[C@H](NC(=O)[C@@H](NC(=O)CNC(=O)[C@@H](N)Cc3c[nH]c4ccccc34)C(C)C)C(=O)N3CCC[C@H]3C(=O)N[C@@H](CCCCN)C(=O)N[C@@H](C(C)C)C(=O)N[C@@H](CC(C)C)C(=O)N[C@@H](CCCNC(=N)N)C(=O)N[C@@H](CC(N)=O)C(=O)N[C@H]3CSSC[C@H](NC1=O)C(=O)N[C@@H](CC(C)C)C(=O)NCC(=O)N[C@@H](CC(N)=O)C(=O)NCC(=O)N[C@@H](Cc1ccc(O)cc1)C(=O)N[C@H](C(=O)NCC(N)=O)CSSC[C@H](NC(=O)[C@H](CC(=O)O)NC(=O)[C@H](CO)NC(=O)[C@H](CC(=O)O)NC(=O)[C@H](CCCNC(=N)N)NC(=O)[C@H](CCCNC(=N)N)NC3=O)C(=O)N1CCC[C@H]1C(=O)NCC(=O)N[C@@H](C)C(=O)N2` [MCoTI Var. 4] (H-WGVCPKVLRNCRRDSDCPGACICLGNGYCG-NH2; disulfide 4-21, 11-23, 17-29), the Ki in assay [1] was 0.00083 ± 0.00014 µM; in assay [4], over 10 µM; in assay [5], over 10 µM; in assay [5] (read-out: Ki (Hepsin), duplicates, 50 mM Tris/HCl pH 9.0, no inhibition observed at 10 µM inhibitor concentration), over 10 µM; in assay [6], over 10 µM; in assay [7], 0.0358 ± 0.0047 µM. Moreover, the “inhibitory activity for matriptase-1 relative to trypsin” value in assay [2] was “approximately fortyfold higher”. Further, the IC50 in assay [3] (1×10^5 PC-3 cells, 250 µM Bz-β-Ala-Gly-Arg-pNA, overnight, absorbance 405 nm, read-out: IC50 (uPA substrate turnover on PC-3 cells)) worked out at 0.213 µM. Further, in assay [3] (PC-3 cells, IC50 comparison (Figure 4)), the “potency relative to recently described peptidomimetic small-molecule inhibitors” value is 10 fold.
Take `CC[C@H](C)[C@@H]1NC(=O)[C@H](C)NC(=O)CNC(=O)[C@H](CO)NC(=O)[C@@H]2CCCN2C(=O)[C@H](CO)NC(=O)[C@@H](NC(=O)[C@H](CCCCN)NC(=O)[C@H](CC(=O)O)NC(=O)[C@@H](N)CCC(=O)O)CSSC[C@@H]2NC(=O)[C@@H]3CSSC[C@@H](C(=O)N[C@@H](CCC(N)=O)C(=O)O)NC(=O)[C@H](C(C)C)NC(=O)[C@H](Cc4ccccc4)NC(=O)[C@H]([C@@H](C)CC)NC(=O)[C@H](CCCNC(=N)N)NC(=O)[C@H](CC(C)C)NC(=O)[C@H]([C@@H](C)CC)NC(=O)[C@@H]4CCCN4C(=O)[C@H](Cc4c[nH]cn4)NC(=O)[C@@H]4CCCN4C(=O)[C@H](C(C)C)NC(=O)[C@H](CSSC[C@H](NC1=O)C(=O)N[C@@H](CO)C(=O)NCC(=O)N[C@@H](Cc1ccccc1)C(=O)NCC(=O)N1CCC[C@H]1C(=O)N1CCC[C@H]1C(=O)N[C@@H](CCC(=O)O)C(=O)N[C@@H](CCC(N)=O)C(=O)N3)NC(=O)[C@H](C)NC(=O)CNC(=O)[C@H](CO)NC2=O` [SOTI-III wt, Spinacia oleracea trypsin inhibitor III, reference compound] (H-EDKCSPSGAICSGFGPPEQCCSGACVPHPILRIFVCQ-OH; disulfide 4-21, 11-25, 20-36): the “Ki (Matriptase-1)” value in assay [1] was “did not display measurable inhibitory activity”. Further, the Ki in assay [1] is over 1 µM; in assay [7], 0.0606 ± 0.0084 µM. Moreover, the “inhibition of matriptase-1 or uPA in the PC-3 assay” value in assay [3] (control, concentration of 10 µM) is on record as “no inhibition”.
Regarding `CC[C@H](C)[C@@H]1NC(=O)[C@H](C)NC(=O)CNC(=O)[C@H](CO)NC(=O)[C@@H]2CCCN2C(=O)[C@H](CO)NC(=O)[C@@H](NC(=O)[C@H](CCCCN)NC(=O)[C@H](CC(=O)O)NC(=O)[C@@H](N)CCC(=O)O)CSSC[C@@H]2NC(=O)[C@@H]3CSSC[C@@H](C(=O)N[C@@H](CCC(N)=O)C(=O)O)NC(=O)[C@H](CCCNC(=N)N)NC(=O)[C@H](Cc4c[nH]c5ccccc45)NC(=O)[C@H](CO)NC(=O)[C@H](CCCNC(=N)N)NC(=O)[C@H](C)NC(=O)[C@H](CCCNC(=N)N)NC(=O)[C@H](CCCNC(=N)N)NC(=O)[C@H](CC(N)=O)NC(=O)[C@H](CC(C)C)NC(=O)[C@H](C(C)C)NC(=O)[C@H](CSSC[C@H](NC1=O)C(=O)N[C@@H](CO)C(=O)NCC(=O)N[C@@H](Cc1ccccc1)C(=O)NCC(=O)N1CCC[C@H]1C(=O)N1CCC[C@H]1C(=O)N[C@@H](CCC(=O)O)C(=O)N[C@@H](CCC(N)=O)C(=O)N3)NC(=O)[C@H](C)NC(=O)CNC(=O)[C@H](CO)NC2=O` [SOTI Var. 1] (H-EDKCSPSGAICSGFGPPEQCCSGACVLNRRARSWRCQ-OH; disulfide 4-21, 11-25, 20-36), the Ki was 0.0289 ± 0.0035 µM in assay [1] and over 1 µM in assay [7]. Moreover, the “Ki (Trypsin)” value in assay [7] is “total loss of trypsin inhibition”.
